According to ChEMBL document CHEMBL3508693 (2016):

Key:
[1] = % of radioactivity recovered as M2 from M3 in plasma following intravenous administration of [14C] aliskiren hemifumarate at 10 mg.Kg-1 level in rat; type: ADME, organism-based, Albino HAN:WIST; details: in vivo
[2] = % aliskiren recovered as M2 from M3 in bile following single intravenous administration of 10 mg.Kg-1 [14C] aliskiren hemifumarate in male rat; type: ADME, organism-based, HAN:WIST(SPF); details: in vivo
[3] = % aliskiren recovered as M2 from M3 in urine following single intravenous administration of 10 mg.Kg-1 [14C] aliskiren hemifumarate in male rat; type: ADME, organism-based, HAN:WIST(SPF); details: in vivo
[4] = % aliskiren recovered as metabolite M2 in urine following 10 day repeated oral administration of [14C] aliskiren hemifumarate at 100 mg.Kg-1 level studied in rat; type: ADME, organism-based, Albino HAN:WIST; details: in vivo, 240 h
[5] = % of radioactivity recovered as M2 from M3 in urine following intravenous administration of [14C] aliskiren hemifumarate at 10 mg.Kg-1 level in rat; type: ADME, organism-based, Albino HAN:WIST; details: in vivo
[6] = % aliskiren hemifumarate (0-168h) recovered as M2 from M3 in urine following single oral dose of [14C] aliskiren hemifumarate at 3 mg.Kg-1 level in marmoset; type: ADME, organism-based, Callithrix jacchus; details: in vivo
[7] = % aliskiren recovered as M2 from M3 of receiver rat following duodenal infusion of radioactivity through bile from donor rat treated with single intravenous administration of 10 mg.Kg-1 [14C] aliskiren hemifumarate; type: ADME, organism-based, HAN:WIST(SPF); details: in vivo
[8] = % aliskiren hemifumarate (0-72h) recovered as M2 from M3 in faeces following single intravenous dose of [14C] aliskiren hemifumarate at 1 mg.Kg-1 level in marmoset; type: ADME, organism-based, Callithrix jacchus, Feces; details: in vivo
[9] = % of radioactivity recovered as M2 from M3 in plasma following oral administration of [14C] aliskiren hemifumarate at 100 mg.Kg-1 level in rat; type: ADME, organism-based, Albino HAN:WIST; details: in vivo
[10] = % aliskiren recovered as M2 from M3 in hydrolysed following single intravenous administration of 10 mg.Kg-1 [14C] aliskiren hemifumarate in male rat; type: ADME, organism-based, HAN:WIST(SPF), Bile; details: in vivo
[11] = % aliskiren hemifumarate recovered as M2 from M3 in urine following single oral dose of 300 mg [14C]SPP100 studied in healthy men; type: ADME, organism-based; details: human, in vivo, at 300 mg
[12] = % aliskiren hemifumarate (0-168h) recovered as M2 from M3 in urine following single intravenous dose of [14C] aliskiren hemifumarate at 1 mg.Kg-1 level in marmoset; type: ADME, organism-based, Callithrix jacchus; details: in vivo
[13] = % aliskiren recovered as metabolite M2 in plasma following 10 day repeated oral administration of [14C] aliskiren hemifumarate at 100 mg.Kg-1 level studied in rat; type: ADME, organism-based, Albino HAN:WIST; details: in vivo, 240 h
[14] = % aliskiren hemifumarate recovered as M2 from M3 in urine and faeces following single oral dose of 300 mg [14C]SPP100 studied in healthy men; type: ADME, organism-based, Urine/Feces; details: human, in vivo, at 300 mg
[15] = % aliskiren hemifumarate recovered as M2 from M3 in faeces following single oral dose of 300 mg [14C]SPP100 studied in healthy men; type: ADME, organism-based, Feces; details: human, in vivo, at 300 mg
[16] = % aliskiren hemifumarate (0-72h) recovered as M2 from M3 in faeces following single oral dose of [14C] aliskiren hemifumarate at 3 mg.Kg-1 level in marmoset; type: ADME, organism-based, Callithrix jacchus, Feces; details: in vivo
[17] = % aliskiren recovered as metabolite M2 in faeces following 10 day repeated oral administration of [14C] aliskiren hemifumarate at 100 mg.Kg-1 level studied in rat; type: ADME, organism-based, Albino HAN:WIST, Feces; details: in vivo, 240 h
[18] = % of radioactivity recovered as M2 from M3 in urine following oral administration of [14C] aliskiren hemifumarate at 100 mg.Kg-1 level in rat; type: ADME, organism-based, Albino HAN:WIST; details: in vivo
[19] = % of radioactivity recovered as M2 from M3 in faeces following intravenous administration of [14C] aliskiren hemifumarate at 10 mg.Kg-1 level in rat; type: ADME, organism-based, Albino HAN:WIST, Feces; details: in vivo
[20] = % of radioactivity recovered as M2 from M3 in faeces following oral administration of [14C] aliskiren hemifumarate at 100 mg.Kg-1 level in rat; type: ADME, organism-based, Albino HAN:WIST, Feces; details: in vivo
[21] = % of radioactivity recovered as M1 in plasma following intravenous administration of [14C] aliskiren hemifumarate at 10 mg.Kg-1 level in rat; type: ADME, organism-based, Albino HAN:WIST; details: in vivo
[22] = % aliskiren recovered as M1 in hydrolysed following single intravenous administration of 10 mg.Kg-1 [14C] aliskiren hemifumarate in male rat; type: ADME, organism-based, HAN:WIST(SPF), Bile; details: in vivo
[23] = % aliskiren recovered as M1 in urine following single intravenous administration of 10 mg.Kg-1 [14C] aliskiren hemifumarate in male rat; type: ADME, organism-based, HAN:WIST(SPF); details: in vivo
[24] = % of radioactivity recovered as M1 in faeces following oral administration of [14C] aliskiren hemifumarate at 100 mg.Kg-1 level in rat; type: ADME, organism-based, Albino HAN:WIST, Feces; details: in vivo
[25] = % aliskiren hemifumarate recovered as M1 in faeces following single oral dose of 300 mg [14C]SPP100 studied in healthy men; type: ADME, organism-based, Feces; details: human, in vivo, at 300 mg
[26] = % of radioactivity recovered as M1 in urine following intravenous administration of [14C] aliskiren hemifumarate at 10 mg.Kg-1 level in rat; type: ADME, organism-based, Albino HAN:WIST; details: in vivo
[27] = % of radioactivity recovered as M1 in faeces following intravenous administration of [14C] aliskiren hemifumarate at 10 mg.Kg-1 level in rat; type: ADME, organism-based, Albino HAN:WIST, Feces; details: in vivo
[28] = % aliskiren hemifumarate recovered as M1 in urine and faeces following single oral dose of 300 mg [14C]SPP100 studied in healthy men; type: ADME, organism-based, Urine/Feces; details: human, in vivo, at 300 mg
[29] = % aliskiren hemifumarate recovered as M1 in urine following single oral dose of 300 mg [14C]SPP100 studied in healthy men; type: ADME, organism-based; details: human, in vivo
[30] = % aliskiren recovered as M1 of receiver rat following duodenal infusion of radioactivity through bile from donor rat treated with single intravenous administration of 10 mg.Kg-1 [14C] aliskiren hemifumarate; type: ADME, organism-based, HAN:WIST(SPF); details: in vivo
[31] = % of radioactivity recovered as M1 in urine following oral administration of [14C] aliskiren hemifumarate at 100 mg.Kg-1 level in rat; type: ADME, organism-based, Albino HAN:WIST; details: in vivo
[32] = % of radioactivity recovered as M1 in plasma following oral administration of [14C] aliskiren hemifumarate at 100 mg.Kg-1 level in rat; type: ADME, organism-based, Albino HAN:WIST; details: in vivo
[33] = % aliskiren recovered as M1 in bile following single intravenous administration of 10 mg.Kg-1 [14C] aliskiren hemifumarate in male rat; type: ADME, organism-based, HAN:WIST(SPF); details: in vivo

For `COc1ccc(C[C@@H](C[C@H](N)[C@@H](O)C[C@H](C(=O)NCC(C)(C)C(N)=O)C(C)C)C(C)C)cc1OCCC(=O)O`, which Compound recovery [1] is on record?
Its Compound recovery is “<= 2%”.

What about the Compound recovery [2] of the same compound?
The Compound recovery was 7.4%.

And the Compound recovery [3]?
Its Compound recovery is 2.9%.

What about the Compound recovery [4] of the same compound?
Its Compound recovery is “OUTCOME = Observed, VALUE = Minor amounts”.

What about the Compound recovery [5] of the same compound?
Its Compound recovery is “<= 2%”.

And the Compound recovery [6]?
The Compound recovery was 0.1%.

And the Compound recovery [7]?
The Compound recovery was 15.4%.

And the Compound recovery [8]?
Its Compound recovery is 6%.

And the Compound recovery [9]?
The Compound recovery was “<= 2%”.

What about the Compound recovery [10] of the same compound?
Its Compound recovery is 10.2%.

And the Compound recovery [11]?
The Compound recovery was under 0.1%.

And the Compound recovery [12]?
The Compound recovery was 0.1%.

And the Compound recovery [13]?
The Compound recovery was “OUTCOME = Observed, VALUE = Minor amounts”.

And the Compound recovery [14]?
Its Compound recovery is 0.6%.

And the Compound recovery [15]?
The Compound recovery was 0.5%.

What about the Compound recovery [16] of the same compound?
Its Compound recovery is 2%.

What about the Compound recovery [17] of the same compound?
The Compound recovery was “OUTCOME = Observed, VALUE = Minor amounts”.

What about the Compound recovery [18] of the same compound?
Its Compound recovery is “<= 2%”.

And the Compound recovery [19]?
The Compound recovery was over 2%.

What about the Compound recovery [20] of the same compound?
The Compound recovery was “<= 2%”.

Which Compound recovery [21] does the source give for `COCCCOc1cc(C[C@@H](C[C@H](N)[C@@H](O)C[C@H](C(=O)NCC(C)(C)C(N)=O)C(C)C)C(C)C)ccc1O` here?
Its Compound recovery is “OUTCOME = Not detected or not investigated”.

And the Compound recovery [22]?
The Compound recovery was 2.8%.

And the Compound recovery [23]?
Its Compound recovery is 0.8%.

What about the Compound recovery [24] of the same compound?
Its Compound recovery is “<= 2%”.

And the Compound recovery [25]?
Its Compound recovery is 0.1%.

And the Compound recovery [26]?
The Compound recovery was “<= 2%”.

What about the Compound recovery [27] of the same compound?
The Compound recovery was over 2%.

What about the Compound recovery [28] of the same compound?
Its Compound recovery is 0.1%.

And the Compound recovery [29]?
The Compound recovery was “OUTCOME = Not detected”.

And the Compound recovery [30]?
The Compound recovery was “OUTCOME = Not detected”.

And the Compound recovery [31]?
The Compound recovery was “<= 2%”.

What about the Compound recovery [32] of the same compound?
Its Compound recovery is “OUTCOME = Not detected or not investigated”.

What about the Compound recovery [33] of the same compound?
The Compound recovery was 1.3%.
